In patent US20240139185A1, “COMPOUNDS THAT PARTICIPATE IN COOPERATIVE BINDING AND USES THEREOF” (Revolution Medicines, Inc., priority 2018, published 2024):

Tests used:
pERK in H358 cells = assay: pERK inhibition in H358 cells; type: cell-based, human; settings: 4 hours treatment, read-out: Cellular pERK inhibition
Outline: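 Human lung cancer H358 cells in RPMI/10% FBS were exposed to compound or DMSO for 4 h. Fixed and permeabilized cells were stained overnight at 4 C with anti-phospho-ERK1/2 (Thr202/Tyr204). Near-infrared imaging read the pERK signal at 800 nm, with DRAQ5 at 700 nm.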

cyclophilin A (CYPA) = cyclophilin A (CYPA) (Homo sapiens, UniProt P62937); assay: CYPA-compound binary complex formation by SPR; settings: read-out: CYPA Binding Affinity
Outline: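 CypA-Avi captured on a Biotin CAPture chip (4 μg/ml), reference flow cell subtracted. Compounds injected as 10-point 2-fold dilutions from 50 μM in HBS-P+ pH7.4 with 2% DMSO; 60 s association and 60 s dissociation, solvent-corrected. Affinity obtained by steady-state fitting.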

[1] = molecular target: T1, BRAF-GTP-KRAS-G12C complex (Homo sapiens, UniProt P01116+P62937, G12C); assay: KRAS-BRAF complex disruption through competition with CYPA-compound by TR-FRET; settings: biochemical BRAF-KRAS G12C-GTP disruption assay EC50, with CYPA
T1 construct: 50 nM of His6-KRas G12C-GTP (1-169); 500 nM of tagless CypA (1-165)
Outline: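 His6-KRAS G12C-GTP (1-169, 50 nM) with tagless CypA (1-165, 500 nM) was incubated with compound for 3 h at room temperature in pH 7.3 Hepes/NaCl/MgCl2 buffer containing GST-BRAF RBD. Anti-His Eu (10 nM) and anti-GST APC (50 nM) were then added for 1.5 h, and the 665/615 nm TR-FRET ratio was read. EC50 from 4-parameter fit; for specificity, wild-type KRAS replaced G12C, and CypA was omitted to test presenter dependence.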

IC50 (pERK in H358 cells) | Kd (cyclophilin A (CYPA)) | EC50 [1] | SMILES
> 10 µM | ≤ 5 µM | ≤ 0.5 µM | Cc1nc2ccc3cc2n1C[C@H](C)COC(=O)[C@@H]1CCCN(N1)C(=O)[C@@H](NC(=O)[C@H](C(C)C)N(C)C(=O)C1CN(C(=O)CCl)C1)Cc1cc(O)cc-3c1 [Compound 147]
1 to 10 µM | ≤ 5 µM | 0.5 to 5 µM | CC#CC(=O)N1CCN(C(=O)N(C)[C@H](C(=O)N[C@H]2Cc3cc(O)cc(c3)-c3ccc4c(C(C)(C)C#N)cn(c4c3)CC(C)(C)COC(=O)[C@@H]3CCCN(N3)C2=O)C(C)C)CC1 [Compound 343]
≤ 1 µM | 5 to 15 µM | ≤ 0.5 µM | CC(C)[C@@H](C(=O)N[C@H]1Cc2cc(O)cc(c2)-c2ccc3c(C4CC4)cn(c3c2)C[C@H](C)COC(=O)[C@@H]2CCCN(N2)C1=O)N(C)C(=O)C1CN(C(=O)CCl)C1 [Compound 117]
≤ 1 µM | ≤ 5 µM | ≤ 0.5 µM | CC1COC(=O)C2CCCN(N2)C(=O)C(NC(=O)C(C(C)C)N(C)C(=O)C2CN(C(=O)CCl)C2)Cc2cc(O)cc(c2)-c2ccc3c(C(C)C#N)cn(c3c2)C1 (stereo not drawn) [Compound 77]
> 10 µM | > 15 µM | > 5 µM | CC(C)[C@@H](C(=O)N[C@H]1Cc2cc(O)cc(n2)-c2ccc3c(C(C)(C)C#N)cn(c3c2)C[C@H](C)COC(=O)[C@@H]2CCCN(N2)C1=O)N(C)C(=O)C1CN(C(=O)CCl)C1 [Compound 59]
≤ 1 µM | 5 to 15 µM | ≤ 0.5 µM | CC(C)[C@@H](C(=O)N[C@H]1Cc2cc(O)cc(c2)-c2ccc3c(C4(C#N)CCC4)cn(c3c2)C[C@H](C)COC(=O)[C@@H]2CCCN(N2)C1=O)N(C)C(=O)C1CN(C(=O)CCl)C1 [Compound 81]
1 to 10 µM | 5 to 15 µM | 0.5 to 5 µM | C=CC(=O)N1CCC(C(=O)N(C)C(C(=O)NC2Cc3cc(O)cc(c3)-c3ccc4c(C(C)(C)C#N)cn(c4c3)CC(C)(C)COC(=O)C3CCCN(N3)C2=O)C(C)C)C1 (stereo not drawn) [Compound 89]
1 to 10 µM | ≤ 5 µM | ≤ 0.5 µM | CON=C(C)c1cn2c3cc(ccc13)-c1cc(O)cc(c1)CC(NC(=O)C(C(C)C)N(C)C(=O)C1CN(C(=O)CCl)C1)C(=O)N1CCCC(N1)C(=O)OCC(C)C2 (stereo not drawn) [Compound 73]
1 to 10 µM | 5 to 15 µM | ≤ 0.5 µM | C=CC(=O)N1CCC(C(=O)N(C)C(C(=O)NC2Cc3cc(O)cc(c3)-c3ccc4c(c3)c(c(C#N)n4CCOC)CC(C)(C)COC(=O)C3CCCN(N3)C2=O)C(C)C)C1 (stereo not drawn) [Compound 400]
> 10 µM | > 15 µM | ≤ 0.5 µM | CC(C)C(C(=O)NC1Cc2cc(O)cc(c2)-c2ccc3c(C(=O)N(C)C)cn(c3c2)CC(C)(C)COC(=O)C2CCCN(N2)C1=O)N(C)C(=O)C1CN(C(=O)CCl)C1 (stereo not drawn) [Compound 109]
1 to 10 µM | ≤ 5 µM | ≤ 0.5 µM | CC(C)[C@@H](C(=O)N[C@H]1Cc2cc(O)cc(c2)-c2ccc3c(Cc4ccccn4)cn(c3c2)C[C@H](C)COC(=O)[C@@H]2CCCN(N2)C1=O)N(C)C(=O)C1CN(C(=O)CCl)C1 [Compound 69]
> 10 µM | 5 to 15 µM | ≤ 0.5 µM | CC(C)[C@@H](C(=O)N[C@H]1Cc2cc(O)cc(c2)-c2ccc3ncn(c3c2)CC(C)(C)COC(=O)[C@@H]2CCCN(N2)C1=O)N(C)C(=O)C1CN(C(=O)CCl)C1 [Compound 139]
≤ 1 µM | ≤ 5 µM | ≤ 0.5 µM | CC(C)[C@@H](C(=O)N[C@H]1Cc2cc(O)cc(c2)-c2ccc3c(CCC#N)cn(c3c2)C[C@H](C)COC(=O)[C@@H]2CCCN(N2)C1=O)N(C)C(=O)C1CN(C(=O)CCl)C1 [Compound 76]
≤ 1 µM | ≤ 5 µM | ≤ 0.5 µM | CC(C)[C@@H](C(=O)N[C@H]1Cc2cc(O)cc(c2)-c2ccc3c(CCC#N)cn(c3c2)CC(C)(C)COC(=O)[C@@H]2CCCN(N2)C1=O)N(C)C(=O)C1CN(C(=O)CCl)C1 [Compound 256]
> 10 µM | 5 to 15 µM | ≤ 0.5 µM | CNC(=O)c1cn2c3cc(ccc13)-c1cc(O)cc(c1)C[C@H](NC(=O)[C@H](C(C)C)N(C)C(=O)C1CN(C(=O)CCl)C1)C(=O)N1CCC[C@H](N1)C(=O)OCC(C)(C)C2 [Compound 108]
1 to 10 µM | 5 to 15 µM | ≤ 0.5 µM | CC(C)[C@@H](C(=O)N[C@H]1Cc2cc(O)cc(c2)-c2ccc3c(c2)N(CC(C)(C)COC(=O)[C@@H]2CCCN(N2)C1=O)C(=O)C3)N(C)C(=O)C1CN(C(=O)CCl)C1 [Compound 177]
≤ 1 µM | ≤ 5 µM | 0.5 to 5 µM | C=CC(=O)N1CCC(C(=O)N(C)C(C(=O)NC2Cc3cc(O)cc(c3)-c3ccc4c(c3)c(cn4C(C)(C)C#N)CC(C)(C)COC(=O)C3CCCN(N3)C2=O)C2CCCC2)C1 (stereo not drawn) [Compound 395]
1 to 10 µM | 5 to 15 µM | > 5 µM | C=CC(=O)N1CCC1C(=O)N(C)C(C(=O)NC1Cc2cc(O)cc(c2)-c2ccc3c(C(F)F)nn(c3c2)CC(C)COC(=O)C2CCCN(N2)C1=O)C(C)C (stereo not drawn) [Compound 204]
